Results on two compounds are retold here after paper PMC9207888, “Hydride Transfer Mechanism of Enzymatic Sugar Nucleotide C2 Epimerization Probed with a Loose-Fit CDP-Glucose Substrate” (ACS Catalysis, 2022).

Holding throughout (assay type): binding
Test [1] deals with T1, TaCPa2E (Thermodesulfatator atlanticus CDP-paratose 2-epimerase; C2 epimerase) (Thermodesulfatator atlanticus, UniProt Z9RN36Q305, Y164F).
T1 construct: C-terminal His-tag, pET21a, expressed in E. coli BL21(DE3); 39362 g/mol functional monomer; catalytic Tyr164; SDR superfamily
In words: co-purified coenzyme in isolated variant. Particulars: tightly bound.

Test [2] deals with T2, TaCPa2E (Thermodesulfatator atlanticus CDP-paratose 2-epimerase; C2 epimerase) (Thermodesulfatator atlanticus, UniProt Z9RN36Q305).
T2 construct: C-terminal His-tag, pET21a, expressed in E. coli BL21(DE3); 39362 g/mol functional monomer; catalytic Tyr164; SDR superfamily
T2 sequence (Z9RN36Q305 1-340): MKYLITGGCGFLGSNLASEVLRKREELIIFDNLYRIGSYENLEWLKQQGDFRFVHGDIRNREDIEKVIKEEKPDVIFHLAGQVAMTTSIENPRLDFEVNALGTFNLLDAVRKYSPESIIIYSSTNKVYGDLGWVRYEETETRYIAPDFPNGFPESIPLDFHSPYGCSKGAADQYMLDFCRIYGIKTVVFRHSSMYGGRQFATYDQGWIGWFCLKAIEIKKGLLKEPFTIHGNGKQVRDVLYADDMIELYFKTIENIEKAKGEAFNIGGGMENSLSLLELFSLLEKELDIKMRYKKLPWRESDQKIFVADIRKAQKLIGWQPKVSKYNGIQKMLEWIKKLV
Nature of the test: HPLC of coenzyme released from denatured purified enzyme. Particulars: tightly bound, co-purified; extraction not quantitative.

Test [3] deals with T2, TaCPa2E (Thermodesulfatator atlanticus CDP-paratose 2-epimerase; C2 epimerase). Nature of the test: HPLC quantification of coenzyme released from denatured purified enzyme. Particulars: resting enzyme without substrate, 60 °C, pH 7.5. The source says: HPLC quantification of coenzyme released from denatured purified enzyme on TaCPa2E (Thermodesulfatator atlanticus CDP-paratose 2-epimerase; C2 epimerase) | the NADH content of the resting enzyme in the absence of the substrate

As to `NC(=O)c1ccc[n+]([C@@H]2O[C@H](COP(=O)(O)OP(=O)(O)OC[C@H]3O[C@@H](n4cnc5c(N)ncnc54)[C@H](O)[C@@H]3O)[C@@H](O)[C@H]2O)c1` [NAD^+], the “co-purified coenzyme in isolated variant” value in test [1] is “The purified variant contained tightly bound NAD^+”. The “HPLC of coenzyme released from denatured purified enzyme” value in test [2] is listed as “enzyme-bound NAD^+ could not be extracted from TaCPa2E reliably”.

`NC(=O)C1=CN([C@@H]2O[C@H](COP(=O)(O)OP(=O)(O)OC[C@H]3O[C@@H](n4cnc5c(N)ncnc54)[C@H](O)[C@@H]3O)[C@@H](O)[C@H]2O)C=CC1` [NADH]: the “portion of enzyme-NADH in resting enzyme” value in test [3] was determined as 4.15 ± 1.0%.
